From the supplement of paper PMC5908809

What was measured:
[1] = test system: IMC-1 (IL-2 20 ng/mL); assay: percent inhibition of viability; higher = more inhibition; settings: 72 h
[2] = test system: normal primary NK cells, pool 3 (3 donors) (IL-2 2.5 ng/mL); assay: as above; settings: 72 h
[3] = test system: NKL (IL-2 2.5 ng/mL); assay: as above; settings: 72 h
[4] = test system: SNK-6 (IL-2 2.5 ng/mL); assay: as above; settings: 72 h
[5] = test system: KAI3 (IL-2 2.5 ng/mL); assay: as above; settings: 72 h
[6] = test system: normal primary NK cells, pool 2 (3 donors) (IL-2 2.5 ng/mL); assay: as above; settings: 72 h
[7] = test system: normal primary NK cells, pool 1 (3 donors), resting (IL-2 0 ng/mL); assay: as above; settings: 72 h
[8] = test system: NK-YS (IL-2 2.5 ng/mL); assay: as above; settings: 72 h
[9] = test system: YT (IL-2 2.5 ng/mL); assay: as above; settings: 72 h
[10] = test system: normal primary NK cells, pool 1 (3 donors) (IL-2 2.5 ng/mL); assay: as above; settings: 72 h
[11] = test system: DERL-7 (IL-2 2.5 ng/mL); assay: as above; settings: 72 h
[12] = test system: KHYG-1 (IL-2 2.5 ng/mL); assay: as above; settings: 72 h
[13] = test system: NK-92 (IL-2 2.5 ng/mL); assay: as above; settings: 72 h
[14] = test system: normal NK cells expanded with K562-aAPC; assay: drug sensitivity score (DSS) (DSS units); higher = more sensitive; extreme values may be limits of the assay; settings: 72 h; IL-2 2.5 ng/mL
Experimental: (§1)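 Drug sensitivity and resistance testing on K562-aAPC-expanded normal NK cells: 5 concentrations (10-fold steps over a 10,000-fold range), 72 h at 37 °C, viability by CellTiter-Glo normalised to DMSO and benzethonium chloride controls; DSS from the fitted curve.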

[15] = test system: normal NK cells expanded with K562-aAPC; assay: percent inhibition of viability; higher = more inhibition; settings: 72 h, IL-2 2.5 ng/mL
Experimental: as §1

[16] = test system: IMC-1 (IL-2 20 ng/mL); assay: drug sensitivity score (DSS) (DSS units); higher = more sensitive; extreme values may be limits of the assay; settings: 72 h
[17] = test system: normal primary NK cells, pool 3 (3 donors) (IL-2 2.5 ng/mL); assay: as above; settings: 72 h
[18] = test system: NKL (IL-2 2.5 ng/mL); assay: as above; settings: 72 h
[19] = test system: SNK-6 (IL-2 2.5 ng/mL); assay: as above; settings: 72 h
[20] = test system: KAI3 (IL-2 2.5 ng/mL); assay: as above; settings: 72 h
[21] = test system: normal primary NK cells, pool 2 (3 donors) (IL-2 2.5 ng/mL); assay: as above; settings: 72 h
[22] = test system: normal primary NK cells, pool 1 (3 donors), resting (IL-2 0 ng/mL); assay: as above; settings: 72 h
[23] = test system: NK-YS (IL-2 2.5 ng/mL); assay: as above; settings: 72 h
[24] = test system: YT (IL-2 2.5 ng/mL); assay: as above; settings: 72 h
[25] = test system: normal primary NK cells, pool 1 (3 donors) (IL-2 2.5 ng/mL); assay: as above; settings: 72 h
[26] = test system: DERL-7 (IL-2 2.5 ng/mL); assay: as above; settings: 72 h
[27] = test system: KHYG-1 (IL-2 2.5 ng/mL); assay: as above; settings: 72 h
[28] = test system: NK-92 (IL-2 2.5 ng/mL); assay: as above; settings: 72 h

Cc1ccccc1C(C(=O)NC1CCCCC1)N(C(=O)Cn1ccnc1C)c1cccc(F)c1 (centres undefined) [AGI-5198] (max concentration tested 10000 nM)
percent inhibition of viability [%]
Settings | 1 nM | 10 nM | 100 nM | 1000 nM | 10000 nM
[1] | -3.01 | 0.83 | 3.36 | -0.42 | 6.36
[2] | -10 | -4.39 | -0.6 | 2.48 | 5.96
[3] | -11.8 | 5.55 | 4.44 | 6.62 | 15.3
[4] | 8.4 | 14.1 | -2.27 | 3.58 | 14.7
[5] | 1.08 | -2.21 | 4.4 | -7.93 | 5.53
[6] | -13.6 | -0.73 | 3.47 | 6.75 | 9.8
[7] | 7.51 | -9.12 | -0.43 | -14.1 | -4.43
[8] | 1.52 | -1.9 | 7.02 | -2.36 | 15.5
[9] | 0.66 | 2.4 | 5.93 | 3.4 | 10.8
[10] | -4.32 | -10.5 | -2.82 | -8.59 | -1.32
[11] | -2.01 | 0.12 | 2.86 | 4.19 | 4.9
[12] | 2.51 | 1.12 | 2.9 | 0.31 | 10.8
[13] | -13.7 | -5.86 | 2.38 | -10.7 | 12.8
[15] | -2.75 | -1.08 | -4.23 | 1.75 | 3.84

Settings | drug sensitivity score
[14] | 0
[16] | 0
[17] | 0
[18] | 0.33
[19] | 0.54
[20] | 0
[21] | 0
[22] | 0
[23] | 0.18
[24] | 0
[25] | 0
[26] | 0
[27] | 0
[28] | 0.01
